The values below come from ChEMBL document CHEMBL5303573, “Mapping human microbiome drug metabolism by gut bacteria and their genes” (Nature, 2019).

Structures are written as SMILES.

The nature of series [1]: The drug is tested on Bifidobacterium breve strain: DSM20213 for biotransformation. The drug concentrations were measured before and after a 12-h incubation by liquid-chromatography-coupled mass spectrometry (LC–MS). The following applies: 2 µM.
The nature of series [2]: The drug is tested on Bacteroides fragilis strain: HMW610 for biotransformation. The drug concentrations were measured before and after a 12-h incubation by liquid-chromatography-coupled mass spectrometry (LC–MS). As to conditions: 2 µM.
The nature of series [3]: The drug is tested on Bacteroides fragilis strain: HMW615 for biotransformation. The drug concentrations were measured before and after a 12-h incubation by liquid-chromatography-coupled mass spectrometry (LC–MS). As to conditions: 2 µM.
The nature of series [4]: The drug is tested on Bacteroides sp. WH2 strain: WH2 for biotransformation. The drug concentrations were measured before and after a 12-h incubation by liquid-chromatography-coupled mass spectrometry (LC–MS). As to conditions: bacteroides sp. wh2, 12 h, 2 µM.
The nature of series [5]: The drug is tested on Bacteroides xylanisolvens strain: DSM18836 for biotransformation. The drug concentrations were measured before and after a 12-h incubation by liquid-chromatography-coupled mass spectrometry (LC–MS). The following applies: 2 µM.
The nature of series [6]: The drug is tested on Anaerotruncus colihominis strain: DSM17241 for biotransformation. The drug concentrations were measured before and after a 12-h incubation by liquid-chromatography-coupled mass spectrometry (LC–MS). As to conditions: 2 µM.
The nature of series [7]: The drug is tested on Blautia luti strain: DSM14534 for biotransformation. The drug concentrations were measured before and after a 12-h incubation by liquid-chromatography-coupled mass spectrometry (LC–MS). In kind it is ADME. Also noted: dose 2 uM, timepoint 0 vs 12 hours. As to conditions: 2 µM.
Series [8] can be described thus: The drug is tested on Clostridium sporogenes strain: ATCC15579 for biotransformation. The drug concentrations were measured before and after a 12-h incubation by liquid-chromatography-coupled mass spectrometry (LC–MS). The following applies: 2 µM.
A short description of series [9]: The drug is tested on Dorea formicigenerans strain: ATCC27755 for biotransformation. The drug concentrations were measured before and after a 12-h incubation by liquid-chromatography-coupled mass spectrometry (LC–MS). The following applies: 2 µM.
Series [10] is described as follows: The drug is tested on Eubacterium ventriosum strain: ATCC27560 for biotransformation. The drug concentrations were measured before and after a 12-h incubation by liquid-chromatography-coupled mass spectrometry (LC–MS). In kind it is ADME. Further details: dose 2 uM, timepoint 0 vs 12 hours. The following applies: 2 µM.
Series [11] in a line: The drug is tested on Ruminococcus gnavus strain: ATCC29149 for biotransformation. The drug concentrations were measured before and after a 12-h incubation by liquid-chromatography-coupled mass spectrometry (LC–MS). The following applies: mediterraneibacter gnavus, 2 µM.
Series [12] is described as follows: The drug is tested on Ruminococcus lactaris strain: ATCC29176 for biotransformation. The drug concentrations were measured before and after a 12-h incubation by liquid-chromatography-coupled mass spectrometry (LC–MS). The following applies: 2 µM.
Series [13] in a line: The drug is tested on Edwardsiella tarda strain: ATCC23685 for biotransformation. The drug concentrations were measured before and after a 12-h incubation by liquid-chromatography-coupled mass spectrometry (LC–MS). As to conditions: 2 µM.
The conditions of series [14]: bacteroides intestinalis, 12 h, 2 µM.
Description: The drug is tested on Bacteroides intestinalis strain: DSM17393 for biotransformation. The drug concentrations were measured before and after a 12-h incubation by liquid-chromatography-coupled mass spectrometry (LC–MS)
The conditions of series [15]: bacteroides thetaiotaomicron, 12 h, 2 µM.
Description: The drug is tested on Bacteroides thetaiotaomicron strain: 3731 for biotransformation. The drug concentrations were measured before and after a 12-h incubation by liquid-chromatography-coupled mass spectrometry (LC–MS)
For series [16] the following is noted: limosilactobacillus reuteri cf48-3a, 12 h, 2 µM.
Description: The drug is tested on Lactobacillus reuteri CF48-3A strain: BEI HM-102 for biotransformation. The drug concentrations were measured before and after a 12-h incubation by liquid-chromatography-coupled mass spectrometry (LC–MS)
The conditions of series [17]: roseburia intestinalis, 12 h, 2 µM.
Description: The drug is tested on Roseburia intestinalis strain: L1-82 for biotransformation. The drug concentrations were measured before and after a 12-h incubation by liquid-chromatography-coupled mass spectrometry (LC–MS)
Series [18] is described as follows: The drug is tested on Ruminococcus torques strain: ATCC27756 for biotransformation. The drug concentrations were measured before and after a 12-h incubation by liquid-chromatography-coupled mass spectrometry (LC–MS). In kind it is ADME. As to conditions: 2 µM. Also noted: dose 2 uM, timepoint 0 vs 12 hours.

`CC(=O)OCC(=O)[C@@]1(OC(C)=O)[C@@H](C)C[C@H]2[C@@H]3C[C@H](F)C4=CC(=O)C=C[C@]4(C)[C@@]3(F)[C@@H](O)C[C@@]21C` [DIFLORASONE DIACETATE]: the “Bacterial Biotransformation” value in series [1] is recorded as “Compound NOT metabolized”; in series [2], “Compound metabolized”; in [3], “Compound metabolized”; in series [4], “Compound metabolized”; in [5], “Compound metabolized”; in series [6], “Compound metabolized”. In addition, the “Bacterial Biotransformation” value in series [7] is listed as “Compound metabolized”; in [8], “Compound metabolized”; in [9], “Compound NOT metabolized”; in series [10], “Compound NOT metabolized”; in series [11] it was “Compound NOT metabolized”; in [12], “Compound NOT metabolized”. For the same compound, the “Bacterial Biotransformation” value is “Compound NOT metabolized” in series [13]; “Compound metabolized” in [14]; “Compound metabolized” in series [15]; “Compound NOT metabolized” in series [16]; “Compound metabolized” in series [17].

Turning to `OCCN(CCO)c1nc(N2CCCCC2)c2nc(N(CCO)CCO)nc(N3CCCCC3)c2n1` [DIPYRIDAMOLE], the “Bacterial Biotransformation” value in [1] is “Compound NOT metabolized”; in series [3] it was “Compound NOT metabolized”; in series [4], “Compound NOT metabolized”; in series [6], “Compound NOT metabolized”; in series [7], “Compound NOT metabolized”; in series [8] it was “Compound metabolized”. In addition, the “Bacterial Biotransformation” value in [9], in [10], in series [11], in [18], in [13] and in series [14] was “Compound NOT metabolized” throughout. The “Bacterial Biotransformation” value in series [15], in series [16] and in series [17] was “Compound NOT metabolized” throughout.

For `CN(C)CCC=C1c2ccccc2COc2ccccc21` [DOXEPIN], the “Bacterial Biotransformation” value in series [1], in series [2], in series [3], in [4], in series [6] and in series [7] was “Compound NOT metabolized” each time. Besides, the “Bacterial Biotransformation” value in series [8], in [9], in [10], in [11], in series [12] and in series [18] was “Compound NOT metabolized” throughout. Besides, the “Bacterial Biotransformation” value in series [13], in series [14], in series [15] and in [17] was “Compound NOT metabolized” in each case.

As to `CC(C)(C(=O)O)c1ccc(C(O)CCCN2CCC(C(O)(c3ccccc3)c3ccccc3)CC2)cc1` (stereo unspecified) [FEXOFENADINE], the “Bacterial Biotransformation” value in series [1], in series [2], in [3], in [4], in [6] and in [7] was “Compound NOT metabolized” each time. The “Bacterial Biotransformation” value in series [8], in series [9], in [11], in series [18], in series [13] and in series [14] was “Compound NOT metabolized” in each case. Besides, the “Bacterial Biotransformation” value in [15], in [16] and in series [17] was “Compound NOT metabolized” in each case.

For the compound `Cc1ccccc1C(OCCN(C)C)c1ccccc1.O=C(O)CC(O)(CC(=O)O)C(=O)O` (stereo unspecified) [ORPHENADRINE CITRATE], the “Bacterial Biotransformation” value in [1], in [2], in series [3], in series [4], in series [6] and in series [7] was “Compound NOT metabolized” throughout. For the same compound, the “Bacterial Biotransformation” value in [8], in series [9], in series [11], in series [12], in series [18] and in series [13] was “Compound NOT metabolized” each time. The “Bacterial Biotransformation” value in series [14], in series [15], in [16] and in series [17] was “Compound NOT metabolized” throughout.

As for `N#Cc1ccc2c(c1)N(CCCN1CCC(O)CC1)c1ccccc1S2` [PERICIAZINE], the “Bacterial Biotransformation” value in series [1] is recorded as “Compound NOT metabolized”; in series [2], “Compound metabolized”; in series [3], “Compound NOT metabolized”; in [4], “Compound NOT metabolized”; in series [6] it was “Compound NOT metabolized”; in series [7] it was “Compound NOT metabolized”. For the same compound, the “Bacterial Biotransformation” value in series [8], in [9], in series [10], in [11], in series [18] and in [13] was “Compound NOT metabolized” throughout. The results for the “Bacterial Biotransformation” value in series [14] and in [15] were “Compound NOT metabolized” and “Compound metabolized”, respectively.

Consider `CCOc1ccc(NC(C)=O)cc1` [PHENACETIN], for which the “Bacterial Biotransformation” value in series [1], in [2], in series [3], in [4], in series [5] and in series [6] was “Compound NOT metabolized” throughout. The “Bacterial Biotransformation” value in series [7], in series [8], in [9], in [10], in series [11] and in series [12] was “Compound NOT metabolized” each time. The “Bacterial Biotransformation” value in series [18], in series [13], in [14], in [15], in series [16] and in series [17] was “Compound NOT metabolized” each time.
